Reference: PubChem BioAssay (NCI)
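Protocol summary: plate cells (96-well), add compound at 5 concentrations, incubate 48 h, interpolate endpoints linearly. GI50 is the concentration that inhibits growth by half. TGI marks complete inhibition of growth.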 Calls of active or inactive are those of the source. Cut-off read from the data, not from the text of the source: active = GI50 below about 0.43 µM; inactive = the rest.

How the values were obtained:
Assay in all cases: NCI anticancer screen, dose series, 48 h
[1] = test system: SNB-78 CNS
[2] = test system: IGROV1 ovarian
[3] = test system: M14 melanoma
[4] = test system: HOP-62 NSCLC
[5] = test system: DMS 114 small cell lung
[6] = test system: 786-0 renal
[7] = test system: SR leukemia
[8] = test system: KM12 colon
[9] = test system: SF-295 CNS
[10] = test system: MDA-MB-231 breast
[11] = test system: MDA-N
[12] = test system: SK-OV-3 ovarian
[13] = test system: SK-MEL-2 melanoma
[14] = test system: MALME-3M melanoma
[15] = test system: SK-MEL-5 melanoma
[16] = test system: DLD-1 colon
[17] = test system: T-47D breast
[18] = test system: NCI-H23 lung
[19] = test system: OVCAR-4 ovarian
[20] = test system: MDA-MB-435
[21] = test system: OVCAR-3 ovarian
[22] = test system: SF-268 CNS
[23] = test system: U251 CNS
[24] = test system: TK-10 renal
[25] = test system: SK-MEL-28 melanoma
[26] = test system: SNB-75 CNS
[27] = test system: MOLT-4 leukemia
[28] = test system: HOP-92 NSCLC
[29] = test system: UO-31 renal
[30] = test system: HT29 colon
[31] = test system: UACC-62 melanoma
[32] = test system: LXFL 529 NSCLC
[33] = test system: OVCAR-8 ovarian
[34] = test system: HCT-15 colon
[35] = test system: DMS 273 small cell lung
[36] = test system: SNB-19 CNS
[37] = test system: PC-3 prostate
[38] = test system: OVCAR-5 ovarian
[39] = test system: SN12C renal
[40] = test system: NCI/ADR-RES ovarian
[41] = test system: HL-60(TB) leukemia
[42] = test system: UACC-257 melanoma
[43] = test system: M19-MEL melanoma
[44] = test system: ACHN renal
[45] = test system: HS 578T breast
[46] = test system: CCRF-CEM leukemia
[47] = test system: BT-549 breast
[48] = test system: HCC-2998 colon
[49] = test system: CAKI-1 renal
[50] = test system: NCI-H460 lung

`C[CH2][Sn]([CH2]C)([O]C(=O)c1ccccc1F)[O]C(=O)c1ccccc1F` showed a GI50 [1] of 20.6 µM, a TGI [1] of 39 µM and a GI50 [2] of over 100 µM. For the same molecule, the TGI [2] was over 100 µM, the GI50 [3] was 30.4 µM and the TGI [3] was 56.8 µM. For the same molecule, the GI50 [4] was over 100 µM, the TGI [4] was over 100 µM and the GI50 [5] was 20.4 µM. For the same molecule, the TGI [5] was 43.1 µM, the GI50 [6] was 33.3 µM and the TGI [6] was over 69.3 µM. For the same molecule, the GI50 [7] was 22.6 µM, the TGI [7] was over 100 µM and the GI50 [8] was over 100 µM. It also gave a TGI [8] of over 100 µM, a GI50 [9] of over 62 µM and a TGI [9] of over 84.6 µM. For the same molecule, the GI50 [10] was over 100 µM, the TGI [10] was over 100 µM and the GI50 [11] was over 100 µM. The TGI [11] was over 100 µM, the GI50 [12] was over 100 µM and the TGI [12] was over 100 µM. The GI50 [13] was 15.8 µM, the TGI [13] was 28.1 µM and the GI50 [14] was 16.5 µM. For the same molecule, the TGI [14] was 31.4 µM, the GI50 [15] was 50.2 µM and the TGI [15] was over 100 µM. It also gave a GI50 [16] of 29.8 µM, a TGI [16] of over 91.3 µM and a GI50 [17] of 11.8 µM. The TGI [17] was 24.4 µM, the GI50 [18] was 22.6 µM and the TGI [18] was 45 µM. The GI50 [19] was over 100 µM, the TGI [19] was over 100 µM and the GI50 [20] was over 100 µM. The TGI [20] was over 100 µM, the GI50 [21] was over 100 µM and the TGI [21] was over 100 µM. It also gave a GI50 [22] of 32.1 µM, a TGI [22] of 50.8 µM and a GI50 [23] of 47.4 µM. For the same molecule, the TGI [23] was over 85.1 µM, the GI50 [24] was 18.1 µM and the TGI [24] was 33.4 µM. For the same molecule, the GI50 [25] was 29.1 µM, the TGI [25] was 47.6 µM and the GI50 [26] was 21.7 µM. It also gave a TGI [26] of over 53.4 µM, a GI50 [27] of 28.8 µM and a TGI [27] of over 91 µM. The GI50 [28] was 18 µM, the TGI [28] was 37.7 µM and the GI50 [29] was over 55.2 µM. It also gave a TGI [29] of over 67.3 µM, a GI50 [30] of 59.2 µM and a TGI [30] of over 100 µM. The GI50 [31] was 27.2 µM, the TGI [31] was 52.4 µM and the GI50 [32] was 11.1 µM. The TGI [32] was 24.2 µM, the GI50 [33] was over 70.5 µM and the TGI [33] was over 100 µM. The GI50 [34] was 29 µM, the TGI [34] was over 67.7 µM and the GI50 [35] was over 67 µM. For the same molecule, the TGI [35] was over 100 µM, the GI50 [36] was 36.6 µM and the TGI [36] was 60.6 µM. The GI50 [37] was over 100 µM, the TGI [37] was over 100 µM and the GI50 [38] was over 97.4 µM. The TGI [38] was over 100 µM, the GI50 [39] was over 75 µM and the TGI [39] was over 100 µM. For the same molecule, the GI50 [40] was over 100 µM, the TGI [40] was over 100 µM and the GI50 [41] was over 45.2 µM. It also gave a TGI [41] of over 100 µM, a GI50 [42] of 32 µM and a TGI [42] of over 46.4 µM. For the same molecule, the GI50 [43] was 29.8 µM, the TGI [43] was over 77.2 µM and the GI50 [44] was 32.7 µM. It also gave a TGI [44] of 48.3 µM, a GI50 [45] of 42.2 µM and a TGI [45] of over 100 µM. For the same molecule, the GI50 [46] was 8.77 µM, the TGI [46] was 35.6 µM and the GI50 [47] was 18.1 µM. The TGI [47] was 35.8 µM, the GI50 [48] was over 100 µM and the TGI [48] was over 100 µM. For the same molecule, the GI50 [49] was 11.9 µM, the TGI [49] was 19.6 µM and the GI50 [50] was over 100 µM. For the same molecule, the TGI [50] was over 100 µM.
With `C=CC(=O)C#CC#CC/C=C\CCCCCCC` the TGI [1] was over 20.6 µM, the TGI [2] was over 6.51 µM and the outcome [2] was “inactive”. For the same molecule, the TGI [3] was over 20.6 µM, the outcome [3] was “inactive” and the TGI [4] was over 20.6 µM. For the same molecule, the outcome [4] was “inactive”, the TGI [5] was over 20.6 µM and the TGI [6] was over 18.4 µM. The outcome [6] was “inactive”, the TGI [7] was 14.2 µM and the outcome [7] was “inactive”. The TGI [8] was over 20.6 µM, the outcome [8] was “inactive” and the TGI [9] was over 20.6 µM. For the same molecule, the outcome [9] was “inactive”, the TGI [10] was over 20.6 µM and the outcome [10] was “inactive”. The outcome [11] was “inactive”, the TGI [12] was over 20.6 µM and the outcome [12] was “inactive”. For the same molecule, the TGI [13] was over 20.6 µM, the outcome [13] was “inactive” and the TGI [14] was over 20.6 µM. The outcome [14] was “inactive”, the TGI [15] was over 20.6 µM and the outcome [15] was “inactive”. The TGI [16] was over 20.6 µM, the TGI [17] was over 20.6 µM and the outcome [17] was “inactive”. The TGI [18] was over 20.6 µM, the outcome [18] was “inactive” and the TGI [19] was over 20.6 µM. For the same molecule, the outcome [19] was “inactive”, the TGI [20] was over 20.6 µM and the outcome [20] was “inactive”. For the same molecule, the TGI [21] was over 20.6 µM, the outcome [21] was “inactive” and the TGI [22] was over 20.6 µM. The outcome [22] was “inactive”, the TGI [23] was over 20.6 µM and the outcome [23] was “inactive”. The TGI [24] was over 20.6 µM, the outcome [24] was “inactive” and the TGI [25] was over 20.6 µM. For the same molecule, the outcome [25] was “inactive”, the TGI [26] was over 20.6 µM and the outcome [26] was “inactive”. The TGI [27] was 12.3 µM, the outcome [27] was “inactive” and the TGI [28] was over 20.6 µM. For the same molecule, the TGI [29] was over 20.6 µM, the outcome [29] was “inactive” and the TGI [30] was over 20.6 µM. For the same molecule, the outcome [30] was “inactive”, the TGI [31] was over 20.6 µM and the outcome [31] was “inactive”. The TGI [32] was over 20.6 µM, the TGI [33] was over 20.6 µM and the outcome [33] was “inactive”. For the same molecule, the TGI [34] was over 20.6 µM, the outcome [34] was “inactive” and the TGI [35] was over 20.6 µM. The TGI [36] was over 20.6 µM, the outcome [36] was “inactive” and the outcome [37] was “inactive”. For the same molecule, the TGI [38] was over 20.6 µM, the outcome [38] was “inactive” and the TGI [39] was over 20.6 µM. For the same molecule, the outcome [39] was “inactive”, the TGI [40] was over 20.6 µM and the outcome [40] was “inactive”. The TGI [41] was over 20.6 µM, the outcome [41] was “inactive” and the TGI [42] was over 20.6 µM. The outcome [42] was “inactive”, the TGI [43] was over 20.6 µM and the TGI [44] was over 20.6 µM. The outcome [44] was “inactive”, the TGI [45] was over 20.6 µM and the outcome [45] was “inactive”. The TGI [46] was over 17.3 µM, the outcome [46] was “inactive” and the TGI [47] was over 20.6 µM. For the same molecule, the TGI [48] was over 20.6 µM, the outcome [48] was “inactive” and the TGI [49] was over 20.6 µM. The outcome [49] was “inactive”, the TGI [50] was over 20.6 µM and the outcome [50] was “inactive”.
